Results on four cell lines are retold here after the supplement of paper PMC10307832.

Assay in all cases: relative viability (nuclei count vs DMSO), 5 days (fraction); higher = more cells survive
Compound in the assay “Palbociclib + Vorinostat”: CC(=O)c1c(C)c2cnc(Nc3ccc(N4CCNCC4)cn3)nc2n(C2CCCC2)c1=O [Palbociclib] + O=C(CCCCCCC(=O)Nc1ccccc1)NO [Vorinostat] (partner 1 µM)
In a few lines: (§1)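 The day after seeding in 1536-well plates, lung cancer cell lines were treated by pin tool with a single drug, or with a fixed anchor-drug dose together with five library-drug doses (not always all listed) in √10 steps. After 5 days, a combined fix-and-stain solution (final 0.05% Triton X-100, 1% formaldehyde, 1 ug/ml Hoechst) was added. Nuclei counted on 4× images gave relative viability as treated counts over vehicle counts, reported as the median of duplicate plates.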

Compound in the assay “Palbociclib + Phenformin”: CC(=O)c1c(C)c2cnc(Nc3ccc(N4CCNCC4)cn3)nc2n(C2CCCC2)c1=O [Palbociclib] + N=C(N)NC(=N)NCCc1ccccc1 [Phenformin] (partner 250 µM)
In outline:
as §1

Compound in the assay “Palbociclib + Luminespib”: CC(=O)c1c(C)c2cnc(Nc3ccc(N4CCNCC4)cn3)nc2n(C2CCCC2)c1=O [Palbociclib] + CCNC(=O)c1noc(-c2cc(C(C)C)c(O)cc2O)c1-c1ccc(CN2CCOCC2)cc1 [Luminespib] (partner 0.01 µM)
In outline:
as §1

Compound in the assay “Palbociclib + Dasatinib”: CC(=O)c1c(C)c2cnc(Nc3ccc(N4CCNCC4)cn3)nc2n(C2CCCC2)c1=O [Palbociclib] + Cc1nc(Nc2ncc(C(=O)Nc3c(C)cccc3Cl)s2)cc(N2CCN(CCO)CC2)n1 [Dasatinib] (partner 0.075 µM)
In outline: as §1

For the cell line NCI-H1651, the relative viability was found to be 0.572 with Palbociclib + Vorinostat (first compound 0.01 µM); 0.523 with Palbociclib + Vorinostat (first compound 0.03162 µM); 0.591 with Palbociclib + Vorinostat (first compound 0.1 µM); 0.529 with Palbociclib + Vorinostat (first compound 0.3162 µM); 0.485 in the assay with Palbociclib + Vorinostat (first compound 1 µM); 0.342 in the assay with Palbociclib + Phenformin (first compound 0.01 µM). Besides, the relative viability in the assay with Palbociclib + Phenformin (first compound 0.03162 µM) stood at 0.332; in the assay with Palbociclib + Phenformin (first compound 0.1 µM), 0.308; with Palbociclib + Phenformin (first compound 0.3162 µM), 0.337; with Palbociclib + Phenformin (first compound 1 µM), 0.256; with Palbociclib + Luminespib (first compound 0.01 µM) it was 0.872; with Palbociclib + Luminespib (first compound 0.03162 µM), 0.814. Further, the relative viability is 0.774 with Palbociclib + Luminespib (first compound 0.1 µM); 0.791 in the assay with Palbociclib + Luminespib (first compound 0.3162 µM); 0.677 in the assay with Palbociclib + Luminespib (first compound 1 µM); 0.394 in the assay with Palbociclib + Dasatinib (first compound 0.01 µM); 0.366 with Palbociclib + Dasatinib (first compound 0.03162 µM); 0.352 in the assay with Palbociclib + Dasatinib (first compound 0.1 µM). For the same cell line, the relative viability in the assay with Palbociclib + Dasatinib (first compound 0.3162 µM) was determined as 0.385; in the assay with Palbociclib + Dasatinib (first compound 1 µM), 0.308.
For NCI-H1666, the relative viability with Palbociclib + Vorinostat (first compound 0.01 µM) stood at 1.05; with Palbociclib + Vorinostat (first compound 0.03162 µM), 0.947; with Palbociclib + Vorinostat (first compound 0.1 µM) it was 0.836; in the assay with Palbociclib + Vorinostat (first compound 0.3162 µM), 0.835; with Palbociclib + Vorinostat (first compound 1 µM) it was 0.788; with Palbociclib + Phenformin (first compound 0.01 µM), 0.57. In addition, the relative viability in the assay with Palbociclib + Phenformin (first compound 0.03162 µM) was 0.462; with Palbociclib + Phenformin (first compound 0.1 µM), 0.518; in the assay with Palbociclib + Phenformin (first compound 0.3162 µM), 0.411; in the assay with Palbociclib + Phenformin (first compound 1 µM) it was 0.427; in the assay with Palbociclib + Luminespib (first compound 0.01 µM) it was 0.969; with Palbociclib + Luminespib (first compound 0.03162 µM), 0.886. Moreover, the relative viability amounted to 0.824 with Palbociclib + Luminespib (first compound 0.1 µM); 0.754 in the assay with Palbociclib + Luminespib (first compound 0.3162 µM); 0.542 with Palbociclib + Luminespib (first compound 1 µM); 0.874 in the assay with Palbociclib + Dasatinib (first compound 0.01 µM); 0.644 with Palbociclib + Dasatinib (first compound 0.03162 µM); 0.683 in the assay with Palbociclib + Dasatinib (first compound 0.1 µM). Moreover, the relative viability came to 0.583 with Palbociclib + Dasatinib (first compound 0.3162 µM) and 0.477 with Palbociclib + Dasatinib (first compound 1 µM).
As for NCI-H1734, the relative viability with Palbociclib + Vorinostat (first compound 0.01 µM) is 0.731; in the assay with Palbociclib + Vorinostat (first compound 0.03162 µM), 0.459; with Palbociclib + Vorinostat (first compound 0.1 µM), 0.619; with Palbociclib + Vorinostat (first compound 0.3162 µM), 0.649; with Palbociclib + Vorinostat (first compound 1 µM), 0.48; with Palbociclib + Phenformin (first compound 0.01 µM), 0.435. Moreover, the relative viability in the assay with Palbociclib + Phenformin (first compound 0.03162 µM) worked out at 0.337; in the assay with Palbociclib + Phenformin (first compound 0.1 µM), 0.307; in the assay with Palbociclib + Phenformin (first compound 0.3162 µM), 0.286; with Palbociclib + Phenformin (first compound 1 µM), 0.247; in the assay with Palbociclib + Luminespib (first compound 0.01 µM) it was 0.251; with Palbociclib + Luminespib (first compound 0.03162 µM) it was 0.182. The relative viability with Palbociclib + Luminespib (first compound 0.1 µM) came out at 0.193; in the assay with Palbociclib + Luminespib (first compound 0.3162 µM), 0.197; with Palbociclib + Luminespib (first compound 1 µM), 0.17; with Palbociclib + Dasatinib (first compound 0.01 µM), 0.461; with Palbociclib + Dasatinib (first compound 0.03162 µM) it was 0.365; in the assay with Palbociclib + Dasatinib (first compound 0.1 µM), 0.393. Also, the relative viability with Palbociclib + Dasatinib (first compound 0.3162 µM) came out at 0.296; with Palbociclib + Dasatinib (first compound 1 µM), 0.254.
Consider NCI-H1755, for which the relative viability with Palbociclib + Vorinostat (first compound 0.01 µM) is 0.721; with Palbociclib + Vorinostat (first compound 0.03162 µM), 0.62; in the assay with Palbociclib + Vorinostat (first compound 0.1 µM), 0.489; with Palbociclib + Vorinostat (first compound 0.3162 µM), 0.606; with Palbociclib + Vorinostat (first compound 1 µM) it was 0.491; with Palbociclib + Phenformin (first compound 0.01 µM), 0.626. Besides, the relative viability with Palbociclib + Phenformin (first compound 0.03162 µM) is 0.433; with Palbociclib + Phenformin (first compound 0.1 µM), 0.495; with Palbociclib + Phenformin (first compound 0.3162 µM) it was 0.53; with Palbociclib + Phenformin (first compound 1 µM), 0.405; with Palbociclib + Luminespib (first compound 0.01 µM), 0.266; in the assay with Palbociclib + Luminespib (first compound 0.03162 µM) it was 0.297. Also, the relative viability is 0.451 with Palbociclib + Luminespib (first compound 0.1 µM); 0.479 with Palbociclib + Luminespib (first compound 0.3162 µM); 0.284 in the assay with Palbociclib + Luminespib (first compound 1 µM); 0.381 in the assay with Palbociclib + Dasatinib (first compound 0.01 µM); 0.373 with Palbociclib + Dasatinib (first compound 0.03162 µM); 0.371 with Palbociclib + Dasatinib (first compound 0.1 µM). Further, the results for the relative viability with Palbociclib + Dasatinib (first compound 0.3162 µM) and in the assay with Palbociclib + Dasatinib (first compound 1 µM) were 0.399 and 0.279, respectively.
